Legend:
Test in all cases: relative viability (nuclei count vs DMSO), 5 days (fraction); higher = more cells survive
QS11 + AZD7762 = compound: C1CC2=C(C1)C=C(C=C2)OC3=NC(=C4C(=N3)N(C=N4)CC5=CC=C(C=C5)C6=CC=CC=C6)N[C@@H](CC7=CC=CC=C7)CO [QS11] + NC(=O)Nc1cc(-c2cccc(F)c2)sc1C(=O)N[C@H]1CCCNC1 [AZD7762] (partner 0.2 µM)
Outline: (§1)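 The day after seeding in 1536-well plates, lung cancer cell lines were treated by pin tool with a single drug, or with a fixed anchor-drug dose together with five library-drug doses (not always all listed) in √10 steps. After 5 days, a combined fix-and-stain solution (final 0.05% Triton X-100, 1% formaldehyde, 1 ug/ml Hoechst) was added. Nuclei counted on 4× images gave relative viability as treated counts over vehicle counts, reported as the median of duplicate plates.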

AZ628 + Palbociclib = compound: CC1=C(C=C(C=C1)NC(=O)C2=CC(=CC=C2)C(C)(C)C#N)NC3=CC4=C(C=C3)N=CN(C4=O)C [AZ628] + CC(=O)c1c(C)c2cnc(Nc3ccc(N4CCNCC4)cn3)nc2n(C2CCCC2)c1=O [Palbociclib] (partner 0.5 µM)
Outline: as §1

AZ628 + Linsitinib = compound: CC1=C(C=C(C=C1)NC(=O)C2=CC(=CC=C2)C(C)(C)C#N)NC3=CC4=C(C=C3)N=CN(C4=O)C [AZ628] + C[C@]1(O)C[C@@H](c2nc(-c3ccc4ccc(-c5ccccc5)nc4c3)c3c(N)nccn32)C1 [Linsitinib] (partner 1 µM)
Outline: as §1

AZ628 + Tozasertib = compound: CC1=C(C=C(C=C1)NC(=O)C2=CC(=CC=C2)C(C)(C)C#N)NC3=CC4=C(C=C3)N=CN(C4=O)C [AZ628] + Cc1cc(Nc2cc(N3CCN(C)CC3)nc(Sc3ccc(NC(=O)C4CC4)cc3)n2)n[nH]1 [Tozasertib] (partner 0.1 µM)
Outline: as §1

EPLC-272H
relative viability (QS11 + AZD7762; first compound 0.253 µM): 0.202 | relative viability (QS11 + AZD7762; first compound 0.8 µM): 0.246 | relative viability (QS11 + AZD7762; first compound 2.53 µM): 0.278 | relative viability (QS11 + AZD7762; first compound 8 µM): 0.247 | relative viability (AZ628 + Palbociclib; first compound 0.08 µM): 0.32 | relative viability (AZ628 + Palbociclib; first compound 0.253 µM): 0.345 | relative viability (AZ628 + Palbociclib; first compound 0.8 µM): 0.292 | relative viability (AZ628 + Palbociclib; first compound 2.53 µM): 0.317 | relative viability (AZ628 + Palbociclib; first compound 8 µM): 0.25 | relative viability (AZ628 + Linsitinib; first compound 0.08 µM): 1.26 | relative viability (AZ628 + Linsitinib; first compound 0.253 µM): 1.13 | relative viability (AZ628 + Linsitinib; first compound 0.8 µM): 1.12 | relative viability (AZ628 + Linsitinib; first compound 2.53 µM): 1.08 | relative viability (AZ628 + Linsitinib; first compound 8 µM): 0.834 | relative viability (AZ628 + Tozasertib; first compound 0.08 µM): 0.28 | relative viability (AZ628 + Tozasertib; first compound 0.253 µM): 0.179 | relative viability (AZ628 + Tozasertib; first compound 0.8 µM): 0.289 | relative viability (AZ628 + Tozasertib; first compound 2.53 µM): 0.297 | relative viability (AZ628 + Tozasertib; first compound 8 µM): 0.248

SW 900
relative viability (QS11 + AZD7762; first compound 0.08 µM): 0.603 | relative viability (QS11 + AZD7762; first compound 0.253 µM): 0.549 | relative viability (QS11 + AZD7762; first compound 0.8 µM): 0.611 | relative viability (QS11 + AZD7762; first compound 2.53 µM): 0.502 | relative viability (QS11 + AZD7762; first compound 8 µM): 0.504 | relative viability (AZ628 + Palbociclib; first compound 0.08 µM): 0.595 | relative viability (AZ628 + Palbociclib; first compound 0.253 µM): 0.542 | relative viability (AZ628 + Palbociclib; first compound 0.8 µM): 0.537 | relative viability (AZ628 + Palbociclib; first compound 2.53 µM): 0.555 | relative viability (AZ628 + Palbociclib; first compound 8 µM): 0.497 | relative viability (AZ628 + Tozasertib; first compound 0.08 µM): 0.7 | relative viability (AZ628 + Tozasertib; first compound 0.253 µM): 0.549 | relative viability (AZ628 + Tozasertib; first compound 0.8 µM): 0.553 | relative viability (AZ628 + Tozasertib; first compound 2.53 µM): 0.496 | relative viability (AZ628 + Tozasertib; first compound 8 µM): 0.232

EBC-1
relative viability (AZ628 + Linsitinib; first compound 0.08 µM): 0.87 | relative viability (AZ628 + Linsitinib; first compound 0.253 µM): 0.843 | relative viability (AZ628 + Linsitinib; first compound 0.8 µM): 0.999 | relative viability (AZ628 + Linsitinib; first compound 2.53 µM): 0.773 | relative viability (AZ628 + Linsitinib; first compound 8 µM): 0.885

HCC-44
relative viability (QS11 + AZD7762; first compound 0.08 µM): 1.11 | relative viability (QS11 + AZD7762; first compound 0.253 µM): 0.995 | relative viability (QS11 + AZD7762; first compound 0.8 µM): 0.65 | relative viability (QS11 + AZD7762; first compound 2.53 µM): 1.02 | relative viability (QS11 + AZD7762; first compound 8 µM): 1.02 | relative viability (AZ628 + Palbociclib; first compound 0.08 µM): 1.01 | relative viability (AZ628 + Palbociclib; first compound 0.253 µM): 0.942 | relative viability (AZ628 + Palbociclib; first compound 0.8 µM): 0.96 | relative viability (AZ628 + Palbociclib; first compound 2.53 µM): 0.958 | relative viability (AZ628 + Palbociclib; first compound 8 µM): 1.15 | relative viability (AZ628 + Linsitinib; first compound 0.08 µM): 0.701 | relative viability (AZ628 + Linsitinib; first compound 0.253 µM): 0.646 | relative viability (AZ628 + Linsitinib; first compound 0.8 µM): 0.672 | relative viability (AZ628 + Linsitinib; first compound 2.53 µM): 0.678 | relative viability (AZ628 + Linsitinib; first compound 8 µM): 0.666 | relative viability (AZ628 + Tozasertib; first compound 0.08 µM): 1.16 | relative viability (AZ628 + Tozasertib; first compound 0.253 µM): 0.956 | relative viability (AZ628 + Tozasertib; first compound 0.8 µM): 0.941 | relative viability (AZ628 + Tozasertib; first compound 2.53 µM): 0.332 | relative viability (AZ628 + Tozasertib; first compound 8 µM): 0.532

NCI-H661
relative viability (AZ628 + Palbociclib; first compound 0.08 µM): 0.418 | relative viability (AZ628 + Palbociclib; first compound 0.253 µM): 0.378 | relative viability (AZ628 + Palbociclib; first compound 0.8 µM): 0.368 | relative viability (AZ628 + Palbociclib; first compound 2.53 µM): 0.366 | relative viability (AZ628 + Palbociclib; first compound 8 µM): 0.386 | relative viability (AZ628 + Linsitinib; first compound 0.08 µM): 0.474 | relative viability (AZ628 + Linsitinib; first compound 0.253 µM): 0.523 | relative viability (AZ628 + Linsitinib; first compound 0.8 µM): 0.49 | relative viability (AZ628 + Linsitinib; first compound 2.53 µM): 0.517 | relative viability (AZ628 + Linsitinib; first compound 8 µM): 0.443 | relative viability (AZ628 + Tozasertib; first compound 0.08 µM): 0.365 | relative viability (AZ628 + Tozasertib; first compound 0.253 µM): 0.409 | relative viability (AZ628 + Tozasertib; first compound 0.8 µM): 0.365 | relative viability (AZ628 + Tozasertib; first compound 2.53 µM): 0.376 | relative viability (AZ628 + Tozasertib; first compound 8 µM): 0.42

SK-LU-1
relative viability (AZ628 + Palbociclib; first compound 0.08 µM): 0.284 | relative viability (AZ628 + Palbociclib; first compound 0.253 µM): 0.286 | relative viability (AZ628 + Palbociclib; first compound 0.8 µM): 0.349 | relative viability (AZ628 + Palbociclib; first compound 2.53 µM): 0.314 | relative viability (AZ628 + Palbociclib; first compound 8 µM): 0.288 | relative viability (AZ628 + Linsitinib; first compound 0.08 µM): 0.728 | relative viability (AZ628 + Linsitinib; first compound 0.253 µM): 1 | relative viability (AZ628 + Linsitinib; first compound 0.8 µM): 0.907 | relative viability (AZ628 + Linsitinib; first compound 2.53 µM): 1.07 | relative viability (AZ628 + Linsitinib; first compound 8 µM): 0.901 | relative viability (AZ628 + Tozasertib; first compound 0.253 µM): 0.275 | relative viability (AZ628 + Tozasertib; first compound 0.8 µM): 0.287 | relative viability (AZ628 + Tozasertib; first compound 2.53 µM): 0.255 | relative viability (AZ628 + Tozasertib; first compound 8 µM): 0.283

NCI-H1299
relative viability (AZ628 + Linsitinib; first compound 0.08 µM): 0.987 | relative viability (AZ628 + Linsitinib; first compound 0.253 µM): 1.04 | relative viability (AZ628 + Linsitinib; first compound 0.8 µM): 0.993 | relative viability (AZ628 + Linsitinib; first compound 2.53 µM): 0.91 | relative viability (AZ628 + Linsitinib; first compound 8 µM): 0.579

A549
relative viability (AZ628 + Linsitinib; first compound 0.08 µM): 0.571 | relative viability (AZ628 + Linsitinib; first compound 0.253 µM): 0.542 | relative viability (AZ628 + Linsitinib; first compound 0.8 µM): 0.469 | relative viability (AZ628 + Linsitinib; first compound 2.53 µM): 0.606 | relative viability (AZ628 + Linsitinib; first compound 8 µM): 0.39

IA-LM
relative viability (AZ628 + Linsitinib; first compound 0.08 µM): 0.761 | relative viability (AZ628 + Linsitinib; first compound 0.253 µM): 0.711 | relative viability (AZ628 + Linsitinib; first compound 0.8 µM): 0.509 | relative viability (AZ628 + Linsitinib; first compound 2.53 µM): 0.353 | relative viability (AZ628 + Linsitinib; first compound 8 µM): 0.252

Calu-6
relative viability (AZ628 + Linsitinib; first compound 0.08 µM): 1.05 | relative viability (AZ628 + Linsitinib; first compound 0.253 µM): 0.859 | relative viability (AZ628 + Linsitinib; first compound 0.8 µM): 0.401 | relative viability (AZ628 + Linsitinib; first compound 2.53 µM): 0.673 | relative viability (AZ628 + Linsitinib; first compound 8 µM): 0.153

NCI-H1648
relative viability (QS11 + AZD7762; first compound 0.08 µM): 0.727 | relative viability (QS11 + AZD7762; first compound 0.253 µM): 0.741 | relative viability (QS11 + AZD7762; first compound 0.8 µM): 0.747 | relative viability (QS11 + AZD7762; first compound 2.53 µM): 0.865 | relative viability (QS11 + AZD7762; first compound 8 µM): 0.544 | relative viability (AZ628 + Palbociclib; first compound 0.08 µM): 0.264 | relative viability (AZ628 + Palbociclib; first compound 0.253 µM): 0.268 | relative viability (AZ628 + Palbociclib; first compound 0.8 µM): 0.224 | relative viability (AZ628 + Palbociclib; first compound 2.53 µM): 0.253 | relative viability (AZ628 + Palbociclib; first compound 8 µM): 0.274 | relative viability (AZ628 + Tozasertib; first compound 0.08 µM): 0.624 | relative viability (AZ628 + Tozasertib; first compound 0.253 µM): 0.615 | relative viability (AZ628 + Tozasertib; first compound 0.8 µM): 0.613 | relative viability (AZ628 + Tozasertib; first compound 2.53 µM): 0.539 | relative viability (AZ628 + Tozasertib; first compound 8 µM): 0.427

NCI-H1650
relative viability (AZ628 + Palbociclib; first compound 0.08 µM): 0.471 | relative viability (AZ628 + Palbociclib; first compound 0.253 µM): 0.372 | relative viability (AZ628 + Palbociclib; first compound 0.8 µM): 0.335 | relative viability (AZ628 + Palbociclib; first compound 2.53 µM): 0.302 | relative viability (AZ628 + Palbociclib; first compound 8 µM): 0.42 | relative viability (AZ628 + Tozasertib; first compound 0.08 µM): 0.469 | relative viability (AZ628 + Tozasertib; first compound 0.253 µM): 0.494 | relative viability (AZ628 + Tozasertib; first compound 0.8 µM): 0.337 | relative viability (AZ628 + Tozasertib; first compound 2.53 µM): 0.368 | relative viability (AZ628 + Tozasertib; first compound 8 µM): 0.206

NCI-H1623
relative viability (AZ628 + Tozasertib; first compound 0.08 µM): 0.528 | relative viability (AZ628 + Tozasertib; first compound 0.253 µM): 0.388 | relative viability (AZ628 + Tozasertib; first compound 0.8 µM): 0.406 | relative viability (AZ628 + Tozasertib; first compound 2.53 µM): 0.381 | relative viability (AZ628 + Tozasertib; first compound 8 µM): 0.307

NCI-H1703
relative viability (QS11 + AZD7762; first compound 0.253 µM): 0.12 | relative viability (QS11 + AZD7762; first compound 0.8 µM): 0.121 | relative viability (QS11 + AZD7762; first compound 2.53 µM): 0.121 | relative viability (QS11 + AZD7762; first compound 8 µM): 0.168 | relative viability (AZ628 + Linsitinib; first compound 0.08 µM): 0.404 | relative viability (AZ628 + Linsitinib; first compound 0.253 µM): 0.328 | relative viability (AZ628 + Linsitinib; first compound 0.8 µM): 0.219 | relative viability (AZ628 + Linsitinib; first compound 2.53 µM): 0.209 | relative viability (AZ628 + Linsitinib; first compound 8 µM): 0.201

— the supplement of paper PMC10307832
